Test results as given in ChEMBL document CHEMBL1201862, “PubChem BioAssay data set” (2004).
Activity calls are given as the source filed them.

How the values were obtained:
Caspase-3 = target: T1, Caspase-3 (Homo sapiens, UniProt P42574); type: functional;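 further: Dose-response selectivity test against caspase-3 for candidate inhibitors of sentrin-specific proteases (SENPs)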
T1 sequence (P42574 whole entry): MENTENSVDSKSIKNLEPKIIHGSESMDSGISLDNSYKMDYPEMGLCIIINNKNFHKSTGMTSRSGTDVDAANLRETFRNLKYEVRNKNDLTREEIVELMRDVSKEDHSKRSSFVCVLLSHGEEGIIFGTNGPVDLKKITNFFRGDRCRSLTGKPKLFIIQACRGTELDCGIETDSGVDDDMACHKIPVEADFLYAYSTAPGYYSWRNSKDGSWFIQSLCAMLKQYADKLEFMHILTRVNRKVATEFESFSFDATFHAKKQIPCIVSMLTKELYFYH

[1] = target: T2, Sentrin-specific protease 8 (Homo sapiens, UniProt Q96LD8); type: functional;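 further: luminescence read-out of SENP8 inhibition, dose-response confirmation following an ultra-high-throughput screen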
T2 sequence (Q96LD8 whole entry): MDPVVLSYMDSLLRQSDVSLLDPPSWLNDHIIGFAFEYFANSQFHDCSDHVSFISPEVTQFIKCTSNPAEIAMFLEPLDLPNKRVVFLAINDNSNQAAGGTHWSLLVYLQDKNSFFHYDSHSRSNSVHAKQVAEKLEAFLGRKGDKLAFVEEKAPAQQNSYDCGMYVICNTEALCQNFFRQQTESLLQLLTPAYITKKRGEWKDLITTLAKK

[2] = target: T3, Sentrin-specific protease 7 (Homo sapiens, UniProt Q9BQF6); type: functional;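 further: Luminescence-based dose-response confirmation of ultra-high-throughput screening hits, measuring inhibition of SENP7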
T3 sequence (Q9BQF6 whole entry): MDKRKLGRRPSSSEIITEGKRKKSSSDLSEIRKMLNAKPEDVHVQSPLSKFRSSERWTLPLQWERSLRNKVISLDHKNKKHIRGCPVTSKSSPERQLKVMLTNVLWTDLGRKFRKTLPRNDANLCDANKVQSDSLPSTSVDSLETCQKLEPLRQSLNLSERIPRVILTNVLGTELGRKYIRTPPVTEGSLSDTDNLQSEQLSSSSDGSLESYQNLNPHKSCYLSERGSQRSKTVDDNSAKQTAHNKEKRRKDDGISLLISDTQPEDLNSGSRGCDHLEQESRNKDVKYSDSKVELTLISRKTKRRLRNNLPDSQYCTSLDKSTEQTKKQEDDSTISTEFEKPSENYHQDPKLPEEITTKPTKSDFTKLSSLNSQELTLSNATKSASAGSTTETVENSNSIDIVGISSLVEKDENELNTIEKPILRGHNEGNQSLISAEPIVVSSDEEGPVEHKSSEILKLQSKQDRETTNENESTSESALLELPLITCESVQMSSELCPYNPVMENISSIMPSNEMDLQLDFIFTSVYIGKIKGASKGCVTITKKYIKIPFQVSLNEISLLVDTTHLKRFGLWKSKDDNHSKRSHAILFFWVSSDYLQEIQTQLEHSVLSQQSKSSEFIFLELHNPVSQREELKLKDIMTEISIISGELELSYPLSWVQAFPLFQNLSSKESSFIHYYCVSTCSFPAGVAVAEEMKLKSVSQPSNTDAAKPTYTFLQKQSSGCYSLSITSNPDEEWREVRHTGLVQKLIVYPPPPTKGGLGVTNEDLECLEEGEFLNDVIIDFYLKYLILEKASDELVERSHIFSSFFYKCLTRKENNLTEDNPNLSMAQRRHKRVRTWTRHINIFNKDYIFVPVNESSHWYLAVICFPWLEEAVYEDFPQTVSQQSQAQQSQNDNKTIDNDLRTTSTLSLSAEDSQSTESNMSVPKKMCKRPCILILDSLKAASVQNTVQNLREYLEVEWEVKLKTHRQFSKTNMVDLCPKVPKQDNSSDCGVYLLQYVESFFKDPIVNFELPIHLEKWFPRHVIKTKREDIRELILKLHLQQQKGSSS

[3] = target: T4, Sentrin-specific protease 6 (Homo sapiens, UniProt Q9GZR1); type: functional;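 further: Luminescence-based dose-response confirmatory assay of SENP6 inhibition, following up an ultra-high-throughput screen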
T4 sequence (Q9GZR1 whole entry): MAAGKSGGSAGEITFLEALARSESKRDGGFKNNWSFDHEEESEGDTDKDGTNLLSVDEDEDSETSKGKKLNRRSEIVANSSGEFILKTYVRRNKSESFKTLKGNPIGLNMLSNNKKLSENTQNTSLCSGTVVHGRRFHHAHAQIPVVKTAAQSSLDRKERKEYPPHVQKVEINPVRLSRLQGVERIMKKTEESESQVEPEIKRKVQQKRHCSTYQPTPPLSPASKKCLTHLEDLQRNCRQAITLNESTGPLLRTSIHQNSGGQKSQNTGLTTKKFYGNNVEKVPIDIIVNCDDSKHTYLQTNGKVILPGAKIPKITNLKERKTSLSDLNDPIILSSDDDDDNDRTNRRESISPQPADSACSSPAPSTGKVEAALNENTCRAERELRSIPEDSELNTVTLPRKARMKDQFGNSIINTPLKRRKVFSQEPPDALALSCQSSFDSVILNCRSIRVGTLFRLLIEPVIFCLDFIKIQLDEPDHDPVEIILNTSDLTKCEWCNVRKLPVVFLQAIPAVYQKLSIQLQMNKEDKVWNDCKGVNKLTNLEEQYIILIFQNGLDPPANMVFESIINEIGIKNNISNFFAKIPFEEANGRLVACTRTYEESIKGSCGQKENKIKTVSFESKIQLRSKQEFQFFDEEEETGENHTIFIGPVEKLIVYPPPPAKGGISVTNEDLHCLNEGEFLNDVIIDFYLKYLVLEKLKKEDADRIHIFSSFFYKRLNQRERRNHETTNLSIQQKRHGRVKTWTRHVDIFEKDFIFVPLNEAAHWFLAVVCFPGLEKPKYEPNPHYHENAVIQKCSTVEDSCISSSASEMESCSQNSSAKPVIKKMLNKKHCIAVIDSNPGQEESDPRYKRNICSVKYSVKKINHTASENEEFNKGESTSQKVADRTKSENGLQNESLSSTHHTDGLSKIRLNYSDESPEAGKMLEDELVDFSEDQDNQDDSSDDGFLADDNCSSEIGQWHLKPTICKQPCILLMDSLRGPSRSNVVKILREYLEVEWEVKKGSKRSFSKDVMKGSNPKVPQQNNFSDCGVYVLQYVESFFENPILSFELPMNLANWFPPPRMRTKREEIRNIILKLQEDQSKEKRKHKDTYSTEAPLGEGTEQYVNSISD

[4] = target: Apoptotic protease-activating factor 1 (Homo sapiens, UniProt O14727); type: functional
[5] = target: T5, Microphthalmia-associated transcription factor (Homo sapiens, UniProt O75030); assay: TRPM1 promoter luciferase signal decrease, dose response, MITF inhibitor project, cell-based, SK-MEL-5, cherry-picked, set 3 (AID 493073); type: functional
T5 sequence (O75030 whole entry): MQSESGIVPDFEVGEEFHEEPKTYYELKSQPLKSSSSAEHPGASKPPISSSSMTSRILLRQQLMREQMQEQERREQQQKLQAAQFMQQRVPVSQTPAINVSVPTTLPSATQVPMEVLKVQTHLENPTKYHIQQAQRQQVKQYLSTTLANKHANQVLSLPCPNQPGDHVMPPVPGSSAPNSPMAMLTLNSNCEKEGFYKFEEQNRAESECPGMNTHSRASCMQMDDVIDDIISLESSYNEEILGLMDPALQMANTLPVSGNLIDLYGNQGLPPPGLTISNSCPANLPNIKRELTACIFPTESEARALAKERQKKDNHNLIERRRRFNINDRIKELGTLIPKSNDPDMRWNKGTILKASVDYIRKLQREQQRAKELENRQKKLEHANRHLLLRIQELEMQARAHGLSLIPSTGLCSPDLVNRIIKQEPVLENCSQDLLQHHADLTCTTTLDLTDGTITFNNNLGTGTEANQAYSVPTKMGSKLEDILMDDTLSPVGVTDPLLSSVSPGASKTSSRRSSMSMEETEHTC

[6] = enhancers of respiration in Yfh1-depleted yeast, dose response, Friedreich's ataxia, plus single-dose screen (AID 1465); type: functional;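 further: yeast depleted of Yfh1p frataxin homolog grown on glycerol needing respiration; WST-1 tetrazolium dye reduction as measure of cellular dehydrogenase metabolic activity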
HEK293 [7] = assay: HEK cell cytotoxicity by LDH release, dose response, cytotoxicity control for IDE activator project, fluorescence, HEK cells (AID 588440); type: functional, cell-based; conditions: Homo sapiens;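 further: cytotoxicity by LDH release measuring loss of membrane integrity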
Beta-lactamase [8] = target: Beta-lactamase (Pseudomonas aeruginosa, UniProt Q79MP6);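 further: biochemical dose-response test of metallo-beta-lactamase enzyme inhibition, read out by epi-absorbance; purified recombinant IMP-1 metallo-beta-lactamase with nitrocefin as substrate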
[9] = target: G-protein coupled receptor 35 (Homo sapiens, UniProt Q9HC97); assay: GPR35 antagonists blocking zaprinast-driven arrestin recruitment, primary screen, imaging, U2OS, beta-arrestin-GFP, zaprinast agonist (AID 2058); type: functional;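 further: antagonist potency meaning inhibition of agonist-induced arrestin redistribution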
Insulin-degrading enzyme [10] = target: T6, Insulin-degrading enzyme (Homo sapiens, UniProt P14735); assay: activators of endogenous IDE in HEK cells, dose response, cell-based, fluorescence polarization (AID 588439); type: functional
T6 sequence (P14735 whole entry): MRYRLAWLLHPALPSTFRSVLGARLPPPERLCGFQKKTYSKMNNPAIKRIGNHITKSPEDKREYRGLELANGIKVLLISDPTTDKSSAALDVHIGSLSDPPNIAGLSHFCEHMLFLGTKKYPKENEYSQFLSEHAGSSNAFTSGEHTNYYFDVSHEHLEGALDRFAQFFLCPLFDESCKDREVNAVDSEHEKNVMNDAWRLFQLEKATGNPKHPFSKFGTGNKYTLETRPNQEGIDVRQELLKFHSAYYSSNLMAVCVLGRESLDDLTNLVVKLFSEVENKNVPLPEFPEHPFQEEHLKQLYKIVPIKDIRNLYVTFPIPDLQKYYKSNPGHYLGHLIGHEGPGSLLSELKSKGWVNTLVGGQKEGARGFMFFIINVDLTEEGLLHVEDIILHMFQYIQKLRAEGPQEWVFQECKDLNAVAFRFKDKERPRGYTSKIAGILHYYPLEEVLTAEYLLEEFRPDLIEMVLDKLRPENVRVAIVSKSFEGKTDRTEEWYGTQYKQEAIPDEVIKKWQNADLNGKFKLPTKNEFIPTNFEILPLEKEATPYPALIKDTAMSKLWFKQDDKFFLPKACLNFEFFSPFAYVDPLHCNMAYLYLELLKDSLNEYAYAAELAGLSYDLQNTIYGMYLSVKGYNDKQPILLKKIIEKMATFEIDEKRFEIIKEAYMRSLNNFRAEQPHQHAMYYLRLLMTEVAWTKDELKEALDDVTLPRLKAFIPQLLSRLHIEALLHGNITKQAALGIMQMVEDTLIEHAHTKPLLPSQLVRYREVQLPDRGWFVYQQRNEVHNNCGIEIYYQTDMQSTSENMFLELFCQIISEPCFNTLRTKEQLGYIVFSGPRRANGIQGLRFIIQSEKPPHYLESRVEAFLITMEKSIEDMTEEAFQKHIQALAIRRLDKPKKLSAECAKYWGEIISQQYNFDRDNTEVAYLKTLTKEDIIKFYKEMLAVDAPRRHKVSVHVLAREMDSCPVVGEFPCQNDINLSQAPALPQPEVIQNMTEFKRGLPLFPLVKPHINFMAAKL

HEK293 [11] = assay: optical interference in Abeta FP readout, dose response, artefact control for IDE activator project, biochemical, fluorescence polarization (AID 588442); type: functional, cell-based; conditions: Homo sapiens
[12] = target: T7, Calpain-2 catalytic subunit (Sus scrofa, UniProt P43367); assay: pig calpain II inhibitor potency, dose response, biochemical, fluorogenic peptide substrate (AID 1420); type: functional
T7 sequence (P43367 whole entry): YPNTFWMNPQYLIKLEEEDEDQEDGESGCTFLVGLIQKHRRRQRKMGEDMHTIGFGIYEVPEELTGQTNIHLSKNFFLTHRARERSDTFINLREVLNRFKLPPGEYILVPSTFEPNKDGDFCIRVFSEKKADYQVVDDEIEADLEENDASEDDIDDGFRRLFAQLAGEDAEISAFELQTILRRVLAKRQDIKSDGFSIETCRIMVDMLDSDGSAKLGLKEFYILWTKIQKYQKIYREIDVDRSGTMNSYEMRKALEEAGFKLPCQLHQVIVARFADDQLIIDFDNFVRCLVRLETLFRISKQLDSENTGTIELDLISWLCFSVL

Beta-lactamase [13] = target: Beta-lactamase (Salmonella choleraesuis (strain SC-B67), UniProt Q5J463)
Insulin-degrading enzyme [14] = target: T6, Insulin-degrading enzyme; assay: activators of recombinant IDE enzyme, dose response, counter-screen for IDE activator project, biochemical, fluorescence polarization (AID 588681)
Aurora kinase A = target: T8, Aurora kinase A (Homo sapiens, UniProt O14965); type: functional;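 further: value from the Navigating the Kinome kinase panel profiling, panel entry STK6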
T8 sequence (O14965 whole entry): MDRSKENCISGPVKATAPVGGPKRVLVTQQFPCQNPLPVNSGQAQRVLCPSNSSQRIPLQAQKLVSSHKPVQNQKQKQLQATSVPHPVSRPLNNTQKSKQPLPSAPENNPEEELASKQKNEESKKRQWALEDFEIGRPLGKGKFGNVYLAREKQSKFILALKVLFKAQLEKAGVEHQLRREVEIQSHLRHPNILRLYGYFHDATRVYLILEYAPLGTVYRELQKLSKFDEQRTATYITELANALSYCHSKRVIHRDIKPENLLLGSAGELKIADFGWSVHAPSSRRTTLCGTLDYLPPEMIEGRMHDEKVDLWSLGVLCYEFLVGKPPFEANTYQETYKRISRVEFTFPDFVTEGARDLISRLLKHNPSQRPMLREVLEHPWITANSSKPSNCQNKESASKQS

[15] = target: ALK tyrosine kinase receptor (Homo sapiens, UniProt Q9UM73); type: functional;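 further: ALK tested as one member of a kinase panel screen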
Aurora kinase B = Aurora kinase B (Homo sapiens, UniProt Q96GD4); type: functional
Chain of Aurora kinase B (Q96GD4 whole entry): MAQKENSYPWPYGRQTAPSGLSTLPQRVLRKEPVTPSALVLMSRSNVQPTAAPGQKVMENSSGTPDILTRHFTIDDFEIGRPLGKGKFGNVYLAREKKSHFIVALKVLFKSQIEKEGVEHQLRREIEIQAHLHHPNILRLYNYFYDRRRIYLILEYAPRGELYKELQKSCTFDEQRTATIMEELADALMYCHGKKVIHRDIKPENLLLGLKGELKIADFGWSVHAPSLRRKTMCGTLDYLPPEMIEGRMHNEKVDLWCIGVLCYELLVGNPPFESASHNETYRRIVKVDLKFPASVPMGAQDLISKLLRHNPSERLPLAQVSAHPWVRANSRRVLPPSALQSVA

Chain of Beta-lactamase (Pseudomonas aeruginosa, UniProt Q79MP6) (Q79MP6 whole entry): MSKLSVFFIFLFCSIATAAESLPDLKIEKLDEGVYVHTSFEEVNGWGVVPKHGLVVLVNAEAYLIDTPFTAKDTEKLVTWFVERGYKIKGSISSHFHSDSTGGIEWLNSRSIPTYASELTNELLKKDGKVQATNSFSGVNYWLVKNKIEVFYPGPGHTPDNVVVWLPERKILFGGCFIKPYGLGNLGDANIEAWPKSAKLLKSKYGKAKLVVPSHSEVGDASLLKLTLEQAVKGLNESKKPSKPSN
Chain of ALK tyrosine kinase receptor (Q9UM73 whole entry): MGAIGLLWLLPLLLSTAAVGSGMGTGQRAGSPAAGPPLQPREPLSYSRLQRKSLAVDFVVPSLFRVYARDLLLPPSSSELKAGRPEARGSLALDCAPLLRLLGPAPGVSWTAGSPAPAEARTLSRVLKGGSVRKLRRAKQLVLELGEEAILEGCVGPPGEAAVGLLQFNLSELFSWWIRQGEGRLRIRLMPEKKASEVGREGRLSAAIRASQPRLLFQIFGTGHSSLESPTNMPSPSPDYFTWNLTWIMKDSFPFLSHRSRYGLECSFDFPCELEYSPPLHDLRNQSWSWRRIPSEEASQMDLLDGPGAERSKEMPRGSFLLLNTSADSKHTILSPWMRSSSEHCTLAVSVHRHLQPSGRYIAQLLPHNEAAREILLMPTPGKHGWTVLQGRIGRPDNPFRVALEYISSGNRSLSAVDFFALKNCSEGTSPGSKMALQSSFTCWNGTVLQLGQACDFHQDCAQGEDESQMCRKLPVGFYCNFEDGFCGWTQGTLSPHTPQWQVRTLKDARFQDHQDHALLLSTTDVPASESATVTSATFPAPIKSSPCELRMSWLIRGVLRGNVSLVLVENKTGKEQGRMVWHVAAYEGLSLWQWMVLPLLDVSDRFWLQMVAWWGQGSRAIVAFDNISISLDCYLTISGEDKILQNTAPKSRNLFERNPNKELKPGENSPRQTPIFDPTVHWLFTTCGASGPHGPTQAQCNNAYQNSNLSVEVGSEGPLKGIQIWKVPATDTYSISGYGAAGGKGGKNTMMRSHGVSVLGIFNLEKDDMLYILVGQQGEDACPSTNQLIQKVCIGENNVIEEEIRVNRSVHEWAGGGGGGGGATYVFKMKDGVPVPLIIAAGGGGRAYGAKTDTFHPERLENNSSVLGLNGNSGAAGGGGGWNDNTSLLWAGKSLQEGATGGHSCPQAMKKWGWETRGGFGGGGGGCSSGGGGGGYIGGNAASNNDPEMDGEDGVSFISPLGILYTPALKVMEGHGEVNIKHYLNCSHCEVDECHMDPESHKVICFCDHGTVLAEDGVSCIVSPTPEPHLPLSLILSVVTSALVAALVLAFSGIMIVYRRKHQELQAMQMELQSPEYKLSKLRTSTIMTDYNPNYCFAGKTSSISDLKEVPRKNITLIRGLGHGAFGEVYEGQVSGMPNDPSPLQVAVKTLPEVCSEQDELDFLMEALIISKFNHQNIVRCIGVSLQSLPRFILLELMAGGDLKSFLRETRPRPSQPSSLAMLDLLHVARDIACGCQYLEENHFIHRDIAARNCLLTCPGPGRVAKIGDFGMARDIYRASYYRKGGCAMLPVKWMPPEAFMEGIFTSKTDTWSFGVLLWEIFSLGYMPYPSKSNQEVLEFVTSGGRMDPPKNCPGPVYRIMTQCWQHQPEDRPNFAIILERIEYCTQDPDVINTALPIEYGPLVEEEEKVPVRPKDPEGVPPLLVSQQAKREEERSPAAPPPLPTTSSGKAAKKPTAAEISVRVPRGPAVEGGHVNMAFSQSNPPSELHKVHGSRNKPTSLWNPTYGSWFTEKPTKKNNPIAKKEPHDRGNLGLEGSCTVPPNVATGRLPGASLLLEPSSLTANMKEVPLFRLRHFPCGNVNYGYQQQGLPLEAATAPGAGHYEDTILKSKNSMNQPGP
Chain of Apoptotic protease-activating factor 1 (O14727 whole entry): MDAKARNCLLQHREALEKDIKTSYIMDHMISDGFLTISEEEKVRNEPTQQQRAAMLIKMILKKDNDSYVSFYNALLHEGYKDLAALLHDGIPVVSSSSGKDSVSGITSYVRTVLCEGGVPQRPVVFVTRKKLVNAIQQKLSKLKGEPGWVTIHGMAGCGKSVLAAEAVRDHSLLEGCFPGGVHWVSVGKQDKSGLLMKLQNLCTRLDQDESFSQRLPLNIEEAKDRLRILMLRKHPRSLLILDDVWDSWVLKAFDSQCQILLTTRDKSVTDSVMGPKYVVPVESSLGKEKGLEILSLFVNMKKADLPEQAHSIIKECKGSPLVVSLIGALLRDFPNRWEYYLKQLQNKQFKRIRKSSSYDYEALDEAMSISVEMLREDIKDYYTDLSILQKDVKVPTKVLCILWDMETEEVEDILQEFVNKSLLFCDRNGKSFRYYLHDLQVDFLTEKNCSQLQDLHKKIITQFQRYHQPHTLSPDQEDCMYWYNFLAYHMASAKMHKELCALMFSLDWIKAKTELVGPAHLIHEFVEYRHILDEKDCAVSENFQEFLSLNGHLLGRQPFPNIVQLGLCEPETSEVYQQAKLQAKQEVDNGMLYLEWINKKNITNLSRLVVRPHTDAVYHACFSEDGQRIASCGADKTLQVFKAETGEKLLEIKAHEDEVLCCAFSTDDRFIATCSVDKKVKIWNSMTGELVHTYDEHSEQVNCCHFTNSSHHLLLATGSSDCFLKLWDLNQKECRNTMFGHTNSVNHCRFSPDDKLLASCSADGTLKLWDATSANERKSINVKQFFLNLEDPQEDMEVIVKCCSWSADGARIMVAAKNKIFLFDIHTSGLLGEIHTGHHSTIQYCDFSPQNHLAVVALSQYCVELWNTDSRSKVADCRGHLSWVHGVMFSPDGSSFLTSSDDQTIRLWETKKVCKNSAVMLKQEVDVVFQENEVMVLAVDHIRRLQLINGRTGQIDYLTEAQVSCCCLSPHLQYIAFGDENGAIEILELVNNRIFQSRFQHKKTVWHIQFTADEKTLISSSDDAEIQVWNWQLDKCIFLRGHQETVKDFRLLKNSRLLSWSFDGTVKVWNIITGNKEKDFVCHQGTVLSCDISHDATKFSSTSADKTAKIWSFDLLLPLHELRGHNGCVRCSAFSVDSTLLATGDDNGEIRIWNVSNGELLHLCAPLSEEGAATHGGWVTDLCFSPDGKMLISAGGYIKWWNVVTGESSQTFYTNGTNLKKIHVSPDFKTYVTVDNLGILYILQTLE
Chain of Beta-lactamase (Salmonella choleraesuis (strain SC-B67), UniProt Q5J463) (Q5J463 whole entry): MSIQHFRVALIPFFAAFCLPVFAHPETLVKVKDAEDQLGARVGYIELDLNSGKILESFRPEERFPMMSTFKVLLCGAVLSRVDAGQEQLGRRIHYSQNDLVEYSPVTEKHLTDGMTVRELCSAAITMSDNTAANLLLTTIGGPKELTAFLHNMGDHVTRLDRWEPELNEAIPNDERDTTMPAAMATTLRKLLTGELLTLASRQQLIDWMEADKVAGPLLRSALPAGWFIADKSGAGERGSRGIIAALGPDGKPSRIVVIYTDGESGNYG
Chain of G-protein coupled receptor 35 (Q9HC97 whole entry): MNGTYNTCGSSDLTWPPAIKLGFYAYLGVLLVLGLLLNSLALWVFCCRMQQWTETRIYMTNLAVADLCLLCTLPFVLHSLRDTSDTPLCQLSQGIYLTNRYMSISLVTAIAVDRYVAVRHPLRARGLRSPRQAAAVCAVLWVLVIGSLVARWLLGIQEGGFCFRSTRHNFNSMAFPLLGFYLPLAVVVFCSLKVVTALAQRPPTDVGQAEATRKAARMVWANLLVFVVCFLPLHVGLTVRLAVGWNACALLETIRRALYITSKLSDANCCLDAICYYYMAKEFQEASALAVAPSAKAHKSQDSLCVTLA

## CC(=O)NC1=C(N(C)C2CCS(=O)(=O)C2)C(=O)c2ccccc2C1=O (configuration not stated)
Caspase-3
  IC50: 17 µM (active)
[1]
  IC50: 13.4 µM (active)
[2]
  IC50: 13 µM (active)
[3]
  IC50: 5.25 µM (active)
[4]
  IC50: 22 µM (active)
[5]
  AC50: 21.2 µM (active)

## CCN1CCN(C2=CC3=CC(=C(C#N)C#N)CCC3CC2)CC1 (configuration not stated)
[6]
  EC50: > 100 µM (active)
HEK293 [7]
  IC50: > 89.2 µM (inactive)
Beta-lactamase [8]
  IC50: 4.22 µM (active)
[9]
  IC50: 1.67 µM (active)
Insulin-degrading enzyme [10]
  EC50: > 54.7 µM (inactive)
HEK293 [11]
  EC50: > 54.7 µM (inactive)
[12]
  IC50: 30.6 µM (not active)
Beta-lactamase [13]
  IC50: 3.08 µM (active)
Insulin-degrading enzyme [14]
  EC50: > 54.7 µM (inactive)

## NC1CCN(C(=O)c2ccc3c(c2)[nH]c(=O)c2cccn23)CC1
Aurora kinase A
  Ki: > 2 µM (inactive)
[15]
  Ki: > 3.16 µM (inactive)
Aurora kinase B
  Ki: 0.158 µM (active)

## CC(=O)N1CCc2cc(S(=O)(=O)NCCC(=O)N3CCN(Cc4ccccc4)CC3)ccc21
HEK293 [7]
  IC50: > 89.2 µM (inactive)
Insulin-degrading enzyme [10]
  EC50: > 54.7 µM (inactive)
HEK293 [11]
  EC50: > 54.7 µM (inactive)
Insulin-degrading enzyme [14]
  EC50: > 54.7 µM (inactive)
